Results published in patent US20230022157A1 (Achillion Pharmaceuticals, Inc., priority 2018, published 2023).

Target: T1, Human Factor D (Homo sapiens, UniProt P00746)
T1 construct: purified from human serum; purchased Complement Technology, Inc; host or cells: human serum (natural protein, not recombinant)
Assay: Human Factor D Assay
Type: biochemical
Conditions: Human Factor D 80 nM, substrate Z-L-Lys-SBzl, assay of Example 3; read-out: IC50 (Stars)
In short: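 Serum-purified human factor D (80 nM final) preincubated 5 min at room temperature with test compound in 50 mM Tris, 1M NaCl, pH 7.5. Z-L-Lys-SBzl substrate and DTNB then added, each at 100 μM final. IC50 from nonlinear regression of reaction rate against compound concentration.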

T1 sequence (P00746 26-253): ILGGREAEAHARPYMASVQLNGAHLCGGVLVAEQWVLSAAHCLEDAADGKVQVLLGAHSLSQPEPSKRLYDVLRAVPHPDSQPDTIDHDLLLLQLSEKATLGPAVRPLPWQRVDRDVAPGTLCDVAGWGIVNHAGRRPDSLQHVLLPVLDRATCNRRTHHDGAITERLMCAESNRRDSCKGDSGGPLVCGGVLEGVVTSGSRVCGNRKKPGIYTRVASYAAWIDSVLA

| SMILES | IC50 [nM] |
| --- | --- |
| CC(=O)c1nn(CC(=O)N2[C@H](C(=O)Nc3nc(Br)ccc3C)C[C@@]3(C)C[C@@H]23)c2ccc(-c3cnc(CO)nc3)cc12 [Compound 30, (1R,3S,5R)-2-(2-(3-acetyl-5-(2-(hydroxymethyl)pyrimidin-5-yl)-1H-indazol-1-yl)acetyl)-N-(6-bromo-3-methylpyridin-2-yl)-5-methyl-2-azabicyclo[3.1.0]hexane-3-carboxamide] | < 1000 |

Same assay, conditions: Human Factor D 80 nM, substrate Z-L-Lys-SBzl; Table 2; read-out: IC50 (Stars)

| SMILES | IC50 [nM] |
| --- | --- |
| COCc1ncc(-c2cc(C)c3c(c2)c(C(C)=O)nn3CC(=O)N2[C@H](C(=O)Nc3nc(Br)ccc3C)C[C@@]3(C)C[C@@H]23)cn1 [Compound 60, (1R,3S,5R)-2-(2-(3-acetyl-5-(2-(methoxymethyl)pyrimidin-5-yl)-7-methyl-11H-indazol-1-yl)acetyl)-N-(6-bromo-3-methylpyridin-2-yl)-5-methyl-2-azabicyclo[3.1.0]hexane-3-carboxamide] | < 1000 |
| COCc1cc(-c2cnc(C)nc2)cc2c(C(C)=O)cn(CC(=O)N3[C@H](C(=O)Nc4nc(C(F)(F)F)ccc4C)C[C@@]4(C)C[C@@H]34)c12 [Compound 238, (1R,3S,5R)-2-(2-(3-acetyl-7-(methoxymethyl)5-(2-methylpyrimidin-5-yl)-1H-indol-1-yl)acetyl)-5-methyl-N-(3-methyl-6-(trifluoromethyl)pyridin-2-yl)-2-azabicyclo[3.1.0]hexane-3-carboxamide] | < 1000 |
| CC(=O)c1nn(CC(=O)N2[C@H](C(=O)Nc3ccc(F)c(Br)n3)C[C@@]3(C)C[C@@H]23)c2c(C)cc(-c3cnc(C(C)O)nc3)cc12 (stereo partly drawn) [Compound 125, (1R,3S,5R)-2-(2-(3-acetyl-5-(2-(1-hydroxyethyl)pyrimidin-5-yl)-7-methyl-11H-indazol-1-yl)acetyl)-N-(6-bromo-5-fluoropyridin-2-yl)-5-methyl-2-azabicyclo[3.1.0]hexane-3-carboxamide] | < 1000 |
| CC(=O)c1nn(CC(=O)N2[C@H](C(=O)N[C@@H](C(C)(C)C)C(F)(F)F)C[C@@]3(C)C[C@@H]23)c2c(C)cc(-c3cnc(C)nc3)cc12 [Compound 154, (1R,3S,5R)-2-{2-[3-acetyl-7-methyl-5-(2-methylpyrimidin-5-yl)indazol-1-yl]acetyl}-5-methyl-N-[(2S)-1,1,1-trifluoro-3,3-dimethylbutan-2-yl]-2-azabicyclo[3.1.0]hexane-3-carboxamide] | 1000 to 10000 |
| CC(=O)c1cn(CC(=O)N2[C@H](C(=O)Nc3nc(Br)c(F)cc3C)C[C@@]3(C)C[C@@H]23)c2c(C)cc(-c3cnc(CO)nc3)cc12 [Compound 78, (1R,3S,5R)-2-(2-(3-acetyl-5-(2-(hydroxymethyl)pyrimidin-5-yl)-7-methyl-1H-indol-1-yl)acetyl)-N-(6-bromo-5-fluoro-3-methylpyridin-2-yl)-5-methyl-2-azabicyclo[3.1.0]hexane-3-carboxamide] | < 1000 |
| CC(=O)c1nn(CC(=O)N2[C@H](C(=O)Nc3nc(Br)ccc3C)C[C@@]3(C)C[C@@H]23)c2c(C)cc(-c3cnc([C@@H](C)O)nc3)cc12 (single isomer, unassigned) [Compound 142] | < 1000 |
| CC(=O)c1cn(CC(=O)N2[C@H](C(=O)Nc3nc(Br)ccc3C)C[C@@]3(C)C[C@@H]23)c2c(C)cc(-c3cnc(CO)nc3)cc12 [Compound 62, (1R,3S,5R)-2-(2-(3-acetyl-5-(2-(hydroxymethyl)pyrimidin-5-yl)-7-methyl-11H-indol-1-yl)acetyl)-N-(6-bromo-3-methylpyridin-2-yl)-5-methyl-2-azabicyclo[3.1.0]hexane-3-carboxamide] | < 1000 |
| CC(=O)c1nn(CC(=O)N2[C@H](C(=O)NC(C)Cc3cccc(F)c3)C[C@@]3(C)C[C@@H]23)c2c(C)cc(-c3cnc(C)nc3)cc12 (stereo partly drawn) [Compound 187, (1R,3S,5R)-2-{2-[3-acetyl-7-methyl-5-(2-methylpyrimidin-5-yl)indazol-1-yl]acetyl}-N-[1-(3-fluorophenyl)propan-2-yl]-5-methyl-2-azabicyclo[3.1.0]hexane-3-carboxamide] | < 1000 |
| CC(=O)c1nn(CC(=O)N2[C@H](C(=O)NCCC3CCC3)C[C@@]3(C)C[C@@H]23)c2c(C)cc(-c3cnc(C)nc3)cc12 [Compound 104, (1R,3S,5R)-2-{2-[3-acetyl-7-methyl-5-(2-methylpyrimidin-5-yl)indazol-1-yl]acetyl}-N-(2-cyclobutylethyl)-5-methyl-2-azabicyclo[3.1.0]hexane-3-carboxamide] | < 1000 |
| CC(=O)c1cn(CC(=O)N2[C@H](C(=O)Nc3nc(Br)c(F)cc3C)C[C@@]3(C)C[C@@H]23)c2c(C)cc(-c3cnc(CF)nc3)cc12 [Compound 217, (1R,3S,5R)-2-(2-(3-acetyl-5-(2-(fluoromethyl)pyrimidin-5-yl)-7-methyl-1H-indol-1-yl)acetyl)-N-(6-bromo-5-fluoro-3-methylpyridin-2-yl)-5-methyl-2-azabicyclo[3.1.0]hexane-3-carboxamide] | < 1000 |
| CC(=O)c1nn(CC(=O)N2[C@H]3CC[C@H](C3)[C@H]2C(=O)Nc2nc(C(F)(F)F)ccc2C)c2c(C)cc(-c3cnc4cc(C)nn4c3)cc12 [Compound 223, (1S,3S,4R)-2-(2-(3-acetyl-7-methyl-5-(2-methylpyrazolo[1,5-a]pyrimidin-6-yl)-1H-indazol-1-yl)acetyl)-N-(3-methyl-6-(trifluoromethyl)pyridin-2-yl)-2-azabicyclo[2.2.1]heptane-3-carboxamide] | < 1000 |
| CC(=O)c1nn(CC(=O)N2[C@H](C(=O)Nc3nc(Br)ccc3C)C[C@@]3(C)C[C@@H]23)c2ccc(-c3cnc(C(=O)O)nc3)cc12 [Compound 47, 5-(3-acetyl-1-(2-((1R,3S,5R)-3-((6-bromo-3-methylpyridin-2-yl)carbamoyl)-5-methyl-2-azabicyclo[3.1.0]hexan-2-yl)-2-oxoethyl)-1H-indazol-5-yl)pyrimidine-2-carboxylic acid] | < 1000 |
| CC(=O)c1cn(CC(=O)N2C[C@H]3C[C@H]3[C@H]2C(=O)Nc2nc(Br)c(F)cc2C)c2c(C)cc(-c3cnc(CO)nc3)cc12 [Compound 83, (1R,2S,5S)-3-(2-(3-acetyl-5-(2-(hydroxymethyl)pyrimidin-5-yl)-7-methyl-11H-indol-1-yl)acetyl)-N-(6-bromo-5-fluoro-3-methylpyridin-2-yl)-3-azabicyclo[3.1.0]hexane-2-carboxamide] | < 1000 |
| CC(=O)c1nn(CC(=O)N2C[C@H]3C[C@H]3[C@H]2C(=O)Nc2nc(Br)ccc2C)c2ccc(-c3cnc(CO)nc3)cc12 [Compound 63, (1R,2S,5S)-3-(2-(3-acetyl-5-(2-(hydroxymethyl)pyrimidin-5-yl)-1H-indazol-1-yl)acetyl)-N-(6-bromo-3-methylpyridin-2-yl)-3-azabicyclo[3.1.0]hexane-2-carboxamide] | < 1000 |
| CC(=O)c1nn(CC(=O)N2[C@H](C(=O)NCc3ccc4c(c3)CCCC4)C[C@@]3(C)C[C@@H]23)c2c(C)cc(-c3cnc(C)nc3)cc12 [Compound 150, (1R,3S,5R)-2-{2-[3-acetyl-7-methyl-5-(2-methylpyrimidin-5-yl)indazol-1-yl]acetyl}-5-methyl-N-(5,6,7,8-tetrahydronaphthalen-2-ylmethyl)-2-azabicyclo[3.1.0]hexane-3-carboxamide] | < 1000 |
